From patent publication US20250282741A1, “NOVEL BENZOFURANYL HYDROXYPHENYL METHANONE DERIVATIVE COMPOUND OR PHARMACEUTICALLY ACCEPTABLE SALT THEREOF” (INNOVO THERAPEUTICS INC., priority 2021, published 2025)
pEC50: −log10 of the molar value.

Columns and labels:
HSP47 = HSP47 (Homo sapiens (Human), UniProt P50454); assay: Evaluation of HSP47 activity (inhibition of collagen fibril formation, 340 nm); type: biochemical; conditions: for inhibition at 100 µM: HSP47 inhibition; for pEC50: HSP47 9.45 μg/ml, collagen fibril formation, test compound 100 μM to 1 μM
Sequence of HSP47 (P50454 19-418, species assumed): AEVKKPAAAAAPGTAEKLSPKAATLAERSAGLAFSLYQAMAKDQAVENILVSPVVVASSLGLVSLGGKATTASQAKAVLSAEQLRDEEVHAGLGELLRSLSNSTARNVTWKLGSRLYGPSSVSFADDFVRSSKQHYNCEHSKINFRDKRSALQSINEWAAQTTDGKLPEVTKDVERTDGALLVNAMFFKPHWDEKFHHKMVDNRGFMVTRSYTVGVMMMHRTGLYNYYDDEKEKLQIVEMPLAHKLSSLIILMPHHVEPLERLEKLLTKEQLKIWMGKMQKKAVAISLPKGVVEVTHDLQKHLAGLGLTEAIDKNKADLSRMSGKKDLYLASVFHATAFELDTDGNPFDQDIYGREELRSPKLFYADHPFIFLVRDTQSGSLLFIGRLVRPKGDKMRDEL
Protocol: Fibrils were formed by adding 180 ul of phosphate-buffered saline (PBS, pH 7.4) solution to 20 ul of collagen dissolved in acidic solution (collagen solution, UK), which was measured at a wavelength of 340 nm. HSP47 (GenScript US) was added at a concentration of 9.45 μg/ml to assess HSP47 activity as the degree to which it inhibits fibril formation. Test compound was added with concentrations of 100 μM to 1 μM and the inhibitory activity of HSP47 was calculated as a percentage or EC50.

[1] = tested on: MCP-1 (Monocyte chemoattractant protein-1) secretion; assay: Inhibition of MCP-1 secretion in LX-2 cells (ELISA); type: cell-based; conditions: Homo sapiens, TGF-beta 10 ng/ml, 30 to 1 μM test compound, 24 hours, read-out: LX-2 cell EC50 (MCP-1 secretion)
Protocol: LX-2 cells, a hepatic stellate cell line, were cultured in 24-well tissue culture plates for 18 hours, followed by TGF-beta 10 ng/ml treatment, and then incubated with 30 to 1 μM of the test compound for 24 hours. The secreted MCP-1 protein in the cell culture medium was quantified using ELISA reagents (RnD, USA). The EC50 value was calculated from the quantitative value of MCP-1 resulting from the treatment of each test compound using prism software (Graphpad, ver 9.4 USA).

LX-2 cells = assay: Sirius red assay, hepatic stellate cell fibrosis (TGF-beta treated LX-2); type: cell-based; conditions: Homo sapiens; for pEC50: LX-2, collagen production, TGF-beta 10 ng/ml, 24 hours; for inhibition at 10 µM: LX-2 cells, collagen production
Protocol: (§1) Liver stellate LX-2 (Elabscience C H), lung epithelial A549 (ATCC US), or skin KEL FIB (ATCC, US) cells were cultured in 24-well tissue culture plates for 18 hours, followed by TGF-beta 10 ng/ml treatment, and then incubated with test compound for 24 hours. Cells were washed with PBS, fixed with Bouin's solution, and washed twice with distilled water. The fixed cells were stained with Sirius red for 2 hours to observe cellular morphological changes, and then washed with 0.01 N HCl solution. Collagen-bound Sirius red was extracted with 0.1 N NaOH solution, which was then quantified at a wavelength of 570 nm. The inhibitory efficacy of each compound on collagen production was shown as a percentage or EC50.

A549 cells = assay: Sirius red assay, lung epithelial cell fibrosis (TGF-beta treated A549); type: cell-based; conditions: Homo sapiens, collagen production
Protocol: as §1

Compound: CCc1oc2cccc(Cl)c2c1C(=O)c1cc(Br)c(O)c(Br)c1 [Example 1, (4-chloro-2-ethylbenzofuran-3-yl)(3,5-dibromo-4-hydroxyphenyl)methanone]
- inhibition at 100 µM (HSP47): 23.3%
- pEC50 [1]: 5.34
- pEC50 (LX-2 cells): 5.52

Compound: CCc1oc2ccc(C)cc2c1C(=O)c1cc(Br)c(O)c(Br)c1 [Example 2, (3,5-dibromo-4-hydroxyphenyl)(2-ethyl-5-methylbenzofuran-3-yl)methanone]
- pEC50 (HSP47): 4.39
- inhibition at 10 µM (LX-2 cells): 65.1%

Compound: CCc1ccc2c(C(=O)c3cc(Br)c(O)c(Br)c3)c(CC)oc2c1 [Example 3, (3,5-dibromo-4-hydroxyphenyl)(2,6-diethylbenzofuran-3-yl)methanone]
- inhibition at 100 µM (HSP47): 26.3%
- pEC50 [1]: 5.66
- pEC50 (LX-2 cells): 5.86

Compound: CCc1oc2c(C)cccc2c1C(=O)c1cc(Br)c(O)c(Br)c1 [Example 4, (3,5-dibromo-4-hydroxyphenyl)(2-ethyl-7-methylbenzofuran-3-yl)methanone]
- pEC50 (HSP47): 4.14
- pEC50 [1]: 5.06
- pEC50 (LX-2 cells): 5.26

Compound: CCc1oc2c(Cl)cccc2c1C(=O)c1cc(Br)c(O)c(Br)c1 [Example 5, (7-chloro-2-ethylbenzofuran-3-yl)(3,5-dibromo-4-hydroxyphenyl)methanone]
- pEC50 (HSP47): 4.42
- pEC50 [1]: 5.45
- pEC50 (LX-2 cells): 5.33

Compound: CCc1oc2c(Br)cccc2c1C(=O)c1cc(Br)c(O)c(Br)c1 [Example 6, (7-bromo-2-ethylbenzofuran-3-yl)(3,5-dibromo-4-hydroxyphenyl)methanone]
- pEC50 (HSP47): 4.09
- pEC50 [1]: 4.99
- pEC50 (LX-2 cells): 4.77

Compound: CCc1oc2c(F)cccc2c1C(=O)c1cc(Br)c(O)c(Br)c1 [Example 7, (3,5-dibromo-4-hydroxyphenyl)(2-ethyl-7-fluorobenzofuran-3-yl)methanone]
- inhibition at 100 µM (HSP47): 18.1%
- pEC50 [1]: 5.55
- pEC50 (LX-2 cells): 4.96

Compound: CCc1oc2ccc(C)cc2c1C(=O)c1cc(I)c(O)c(I)c1 [Example 8, (2-ethyl-5-methylbenzofuran-3-yl)(4-hydroxy-3,5-diiodophenyl)methanone]
- pEC50 (HSP47): 4.43
- inhibition at 10 µM (LX-2 cells): 67.9%

Compound: CCc1oc2cc(C)ccc2c1C(=O)c1cc(I)c(O)c(I)c1 [Example 10, (2-ethyl-6-methylbenzofuran-3-yl)(4-hydroxy-3,5-diiodophenyl)methanone]
- inhibition at 100 µM (HSP47): 41.8%
- inhibition at 10 µM (LX-2 cells): 128%

Compound: CCc1oc2cc(Br)ccc2c1C(=O)c1cc(I)c(O)c(I)c1 [Example 11, (6-bromo-2-ethylbenzofuran-3-yl)(4-hydroxy-3,5-diiodophenyl)methanone]
- inhibition at 100 µM (HSP47): 69.2%
- inhibition at 10 µM (LX-2 cells): 78.3%

Compound: CCc1oc2c(C)cccc2c1C(=O)c1cc(I)c(O)c(I)c1 [Example 13, (2-ethyl-7-methylbenzofuran-3-yl)(4-hydroxy-3,5-diiodophenyl)methanone]
- inhibition at 10 µM (A549 cells): 65.2%
- inhibition at 30 µM (A549 cells): 72.5%
- pEC50 (HSP47): 4.31

Compound: CCc1oc2c(Cl)cccc2c1C(=O)c1cc(I)c(O)c(I)c1 [Example 14, (7-chloro-2-ethyl-3-yl)(4-hydroxy-3,5-diiodophenyl)methanone]
- inhibition at 10 µM (LX-2 cells): 90.6%

Compound: CCc1oc2c(Br)cccc2c1C(=O)c1cc(I)c(O)c(I)c1 [Example 15, (7-bromo-2-ethylbenzofuran-3-yl)(4-hydroxy-3,5-diiodophenyl)methanone]
- inhibition at 30 µM (A549 cells): 96.2%
- pEC50 (HSP47): 4.32

Compound: O=C(c1cc(Br)c(O)c(Br)c1)c1coc2ccccc12 [Example 16, benzofuran-3-yl(3,5-dibromo-4-hydroxyphenyl)methanone]
- inhibition at 10 µM (A549 cells): 64.3%
- pEC50 (HSP47): 4.50

Compound: Cc1oc2cc(Br)ccc2c1C(=O)c1cc(Br)c(O)c(Br)c1 [Example 17, (6-bromo-2-methylbenzofuran-3-yl)(3,5-dibromo-4-hydroxyphenyl)methanone]
- inhibition at 100 µM (HSP47): 19.5%
- pEC50 [1]: 5.43
- pEC50 (LX-2 cells): 5.43

Compound: Cc1oc2ccc(Br)cc2c1C(=O)c1cc(Br)c(O)c(Br)c1 [Example 18, (5-bromo-2-methylbenzofuran-3-yl)(3,5-dibromo-4-hydroxyphenyl)methanone]
- inhibition at 100 µM (HSP47): 75.2%
- pEC50 [1]: 5.52
- pEC50 (LX-2 cells): 5.33

Compound: CCc1ccc2oc(CC)c(C(=O)c3cc(Br)c(O)c(Br)c3)c2c1 [Example 20, (3,5-dibromo-4-hydroxyphenyl)(2,5-diethylbenzofuran-3-yl)methanone]
- pEC50 (HSP47): 4.31
- pEC50 [1]: 5.68
- pEC50 (LX-2 cells): 5.40

Compound: CCc1oc2c(CC)cccc2c1C(=O)c1cc(Br)c(O)c(Br)c1 [Example 21, (3,5-dibromo-4-hydroxyphenyl)(2,7-diethylbenzofuran-3-yl)methanone]
- pEC50 (HSP47): 5.26
- pEC50 [1]: 5.55
- pEC50 (LX-2 cells): 5.51

Compound: CCc1oc2cccc(C)c2c1C(=O)c1cc(Br)c(O)c(Br)c1 [Example 23, (3,5-dibromo-4-hydroxyphenyl)(2-ethyl-4-methylbenzofuran-3-yl)methanone]
- pEC50 (HSP47): 4.15
- pEC50 (LX-2 cells): 5.47

Compound: CCc1oc2cccc(F)c2c1C(=O)c1cc(Br)c(O)c(Br)c1 [Example 24, (3,5-dibromo-4-hydroxyphenyl)(2-ethyl-4-fluorobenzofuran-3-yl)methanone]
- pEC50 (HSP47): 3.98
- pEC50 (LX-2 cells): 5.44
